The target in one test is T1, M1 muscarinic receptor (Homo sapiens, UniProt P11229).
T1 construct: expressed in transfected cells; host or cells: CHO cells (M1-CHO, under zeocin and G418 selection)
T1 sequence (P11229 1-460): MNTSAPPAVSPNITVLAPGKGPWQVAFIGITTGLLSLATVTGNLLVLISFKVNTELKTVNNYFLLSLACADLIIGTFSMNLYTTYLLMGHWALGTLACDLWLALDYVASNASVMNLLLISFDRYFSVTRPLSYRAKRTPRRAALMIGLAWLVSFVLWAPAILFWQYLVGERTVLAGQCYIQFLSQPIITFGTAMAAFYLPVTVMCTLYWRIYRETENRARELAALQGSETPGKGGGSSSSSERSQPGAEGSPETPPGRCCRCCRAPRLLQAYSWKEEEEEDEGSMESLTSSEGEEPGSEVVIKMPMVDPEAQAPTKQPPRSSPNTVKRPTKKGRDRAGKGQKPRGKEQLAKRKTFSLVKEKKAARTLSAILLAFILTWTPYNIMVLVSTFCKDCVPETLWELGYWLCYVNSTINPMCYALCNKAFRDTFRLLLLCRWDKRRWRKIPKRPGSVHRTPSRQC
The experiment in a line: Functional mobilization of intracellular calcium (FLIPR, Fluo-3), M1-CHO cells. It counts as cell-based. As to conditions: for Emax: 100% efficacy is the maximum response obtained with the Carbachol control, read-out: M1 Efficacy. The gist of the method:
(§1)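 Intracellular calcium was tracked by fluorescence (488/540 nm) over 60 sec after compound addition to dye-loaded CHO cells expressing the receptor. Inhibitory activity used a 15 min pre-incubation before carbachol at the subtype EC80.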
On the technique in general: Calcium assays in cells follow changes in intracellular calcium, usually with a dye or a luminescent sensor.

The next test concerns the target T2, M4 muscarinic receptor (Homo sapiens, UniProt P08173).
T2 construct: expressed in transfected cells; host or cells: CHO cells (M4-CHO, under puromycin, zeocin and blasticidin selection)
T2 sequence (P08173 1-479): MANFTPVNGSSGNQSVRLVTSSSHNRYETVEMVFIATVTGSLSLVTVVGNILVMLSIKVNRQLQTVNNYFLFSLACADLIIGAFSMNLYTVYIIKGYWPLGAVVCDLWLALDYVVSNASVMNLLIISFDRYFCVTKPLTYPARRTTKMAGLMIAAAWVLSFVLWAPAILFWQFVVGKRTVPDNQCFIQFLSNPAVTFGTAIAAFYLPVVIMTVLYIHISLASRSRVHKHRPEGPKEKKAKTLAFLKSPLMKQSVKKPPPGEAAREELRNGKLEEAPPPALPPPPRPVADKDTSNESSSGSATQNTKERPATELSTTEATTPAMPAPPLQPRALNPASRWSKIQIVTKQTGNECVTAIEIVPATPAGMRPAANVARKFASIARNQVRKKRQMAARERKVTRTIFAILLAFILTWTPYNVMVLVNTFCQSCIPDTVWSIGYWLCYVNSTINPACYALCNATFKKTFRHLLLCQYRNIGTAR
Briefly: Functional mobilization of intracellular calcium (FLIPR, Fluo-3), M4-CHO cells. It counts as cell-based. As to conditions: for Emax: 100% efficacy is the maximum response obtained with the Carbachol control, read-out: M4 Efficacy. The gist of the method: as §1

[1] abbreviates: compound nos. 1-454, M1-CHO cells, calcium mobilization.
The mark [2] stands for this setting: compound nos. 1-454, M4-CHO cells, calcium mobilization.

Read-outs that look alike come from different tables or passages of the source.

For `O=C(OC1CCCC1)N1C2CCC1CC(N1CCC3(CC1)COc1ccc(F)cc13)C2` (centres unmarked) [compound 133], the Emax at M1 muscarinic receptor (compound nos. 1-454) was over 85%; at M4 muscarinic receptor (compound nos. 1-454), 55 to 70%. In addition, the “M1 Activity” value at M1 muscarinic receptor (setting [1]) is listed as “+++ (activity was measured to be less than or equal to 0.7 μM)”. Also, the “M4 Activity” value on M4 muscarinic receptor (setting [2]) is “++ (activity was measured to be between 0.1 μM and 4.0 μM)”.
`CCOC(=O)N1C2CCC1CC(N1CCC3(CC1)CN(C(C)=O)c1c(F)cccc13)C2` (centres unmarked) [compound 322]: the Emax was under 65% on M1 muscarinic receptor (compound nos. 1-454) and over 70% at M4 muscarinic receptor (compound nos. 1-454). For the same molecule, the “M1 Activity” value at M1 muscarinic receptor (setting [1]) was “++ (activity was measured to be between 0.7 μM and 3.0 μM)”. Also, the “M4 Activity” value on M4 muscarinic receptor (setting [2]) is “+++ (activity was measured to be less than or equal to 0.1 μM)”.
For `CCOC(=O)N1C2CCC1CC(N1CCC3(CC1)CN(C(C)=O)c1ccccc13)C2` (centres unmarked) [compound 205], the figures for the Emax on M1 muscarinic receptor (compound nos. 1-454) and on M4 muscarinic receptor (compound nos. 1-454) were under 65% and under 55%, respectively. Further, at M1 muscarinic receptor (setting [1]), the “M1 Activity” value is recorded as “+ (activity was measured to be greater than or equal to 3.0 μM)”. The “M4 Activity” value on M4 muscarinic receptor (setting [2]) is listed as “+ (activity was measured to be greater than or equal to 4.0 μM)”.
For `Fc1ccc2c(c1)C1(CCN(C[C@H]3C[C@H]4CC[C@H]3O4)CC1)CN2` [compound 300], the Emax at M1 muscarinic receptor (compound nos. 1-454) is 65 to 85%; on M4 muscarinic receptor (compound nos. 1-454), under 55%. In addition, the “M1 Activity” value on M1 muscarinic receptor (setting [1]) is “++ (activity was measured to be between 0.7 μM and 3.0 μM)”. In addition, at M4 muscarinic receptor (setting [2]), the “M4 Activity” value was “+ (activity was measured to be greater than or equal to 4.0 μM)”.
In the case of `COC(=O)N1CCC(CN2CCC3(CC2)CN(C(C)=O)c2ccc(C)cc23)CC1` [compound 423], on M1 muscarinic receptor (compound nos. 1-454), the “M1 Activity” value is “++ (activity was measured to be between 0.7 μM and 3.0 μM)”; the Emax was under 65%. Besides, at M4 muscarinic receptor (compound nos. 1-454), the “M4 Activity” value was “+ (activity was measured to be greater than or equal to 4.0 μM)” and the Emax is under 55%.
As to `Clc1ccc2c(c1)C1(CCN(C3CCOCC3)CC1)CN2` [compound 37], the Emax was 65 to 85% at M1 muscarinic receptor (compound nos. 1-454) and over 70% on M4 muscarinic receptor (compound nos. 1-454). On M1 muscarinic receptor (setting [1]), the “M1 Activity” value was “+++ (activity was measured to be less than or equal to 0.7 μM)”. Also, the “M4 Activity” value on M4 muscarinic receptor (setting [2]) is “++ (activity was measured to be between 0.1 μM and 4.0 μM)”.
On to `CCOC(=O)N1CCC(N2CCC3(CC2)CN(C(=O)C(C)(C)C)c2ccc(F)cc23)CC1` [compound 282], for which the Emax was under 65% at M1 muscarinic receptor (compound nos. 1-454) and 55 to 70% at M4 muscarinic receptor (compound nos. 1-454). The “M1 Activity” value at M1 muscarinic receptor (setting [1]) is “+++ (activity was measured to be less than or equal to 0.7 μM)”. Also, the “M4 Activity” value on M4 muscarinic receptor (setting [2]) is “++ (activity was measured to be between 0.1 μM and 4.0 μM)”.
`CC(=O)N1CC2(CCN(C3CC[C@@H]4CC[C@@H]3C4)CC2)c2cc(F)ccc21` (some centres unmarked) [compound 251]: the figures for the Emax on M1 muscarinic receptor (compound nos. 1-454) and at M4 muscarinic receptor (compound nos. 1-454) were 65 to 85% and 55 to 70%, respectively. At M1 muscarinic receptor (setting [1]), the “M1 Activity” value is “++ (activity was measured to be between 0.7 μM and 3.0 μM)”. For the same molecule, at M4 muscarinic receptor (setting [2]), the “M4 Activity” value is given as “+ (activity was measured to be greater than or equal to 4.0 μM)”.
Turning to `CCOC(=O)N1C2CCC1CC(N1CCC3(CC1)CN(C(=O)O[C@@H]1CCOC1)c1ccc(F)cc13)C2` (some centres unmarked) [compound 28], the values for the Emax at M1 muscarinic receptor (compound nos. 1-454) and at M4 muscarinic receptor (compound nos. 1-454) were over 85% and 55 to 70%, respectively. The “M1 Activity” value on M1 muscarinic receptor (setting [1]) is “+++ (activity was measured to be less than or equal to 0.7 μM)”. Also, at M4 muscarinic receptor (setting [2]), the “M4 Activity” value is “++ (activity was measured to be between 0.1 μM and 4.0 μM)”.
Consider `CCc1cnc(N2CCC(N3CCC4(CC3)CN(C(=O)N(C)C)c3ccccc34)CC2)cn1` [compound 466], for which the Emax on M1 muscarinic receptor (compound nos. 455-509) is over 100%; at M4 muscarinic receptor (compound nos. 455-509), 25 to 100%. Also, on M1 muscarinic receptor (compounds 455-509), the “M1 Activity” value is “++ (activity was measured to be between 2.0 μM and 5.0 μM)”. For the same molecule, the “M4 Activity” value on M4 muscarinic receptor (compounds 455-509) is “++ (activity was measured to be between 2.0 μM and 5.0 μM)”.
For the molecule `Clc1ccc2c(c1)C1(CCO2)CCN(C2CCCCC2)CC1` [compound 276], the Emax at M1 muscarinic receptor (compound nos. 1-454) lay within 65 to 85%; at M4 muscarinic receptor (compound nos. 1-454), 55 to 70%. Also, at M1 muscarinic receptor (setting [1]), the “M1 Activity” value is “+++ (activity was measured to be less than or equal to 0.7 μM)”. Further, the “M4 Activity” value at M4 muscarinic receptor (setting [2]) is recorded as “+ (activity was measured to be greater than or equal to 4.0 μM)”.
For `CCOC(=O)N1CCC(N2CCC3(CC2)CN(C(=O)OCCOC)c2ccc(F)cc23)CC1` [compound 38] the same measures were over 85%, over 70%, “+++ (activity was measured to be less than or equal to 0.7 μM)” and “+++ (activity was measured to be less than or equal to 0.1 μM)”.
With `CCOC(=O)N1CCC(N2CCC3(CC2)CN(C(=O)c2ccccc2C)c2ccc(F)cc23)CC1` [compound 53], the Emax was under 65% on M1 muscarinic receptor (compound nos. 1-454) and 55 to 70% on M4 muscarinic receptor (compound nos. 1-454). Also, the “M1 Activity” value on M1 muscarinic receptor (setting [1]) was “++ (activity was measured to be between 0.7 μM and 3.0 μM)”. For the same molecule, the “M4 Activity” value on M4 muscarinic receptor (setting [2]) is “++ (activity was measured to be between 0.1 μM and 4.0 μM)”.
Turning to `Fc1ccc2c(c1)C1(CCN(C3CCC4CCC3C4)CC1)CN2` (centres unmarked) [compound 111], the Emax on M1 muscarinic receptor (compound nos. 1-454) is 65 to 85%; at M4 muscarinic receptor (compound nos. 1-454), under 55%. At M1 muscarinic receptor (setting [1]), the “M1 Activity” value is on record as “+++ (activity was measured to be less than or equal to 0.7 μM)”. At M4 muscarinic receptor (setting [2]), the “M4 Activity” value is “++ (activity was measured to be between 0.1 μM and 4.0 μM)”.
As for `CC(=O)N1CC2(CCN(C3CCN(c4nc(C)cs4)CC3)CC2)c2ccccc21` [compound 475], the Emax at M1 muscarinic receptor (compound nos. 455-509) and on M4 muscarinic receptor (compound nos. 455-509) was 25 to 100% throughout. In addition, the “M1 Activity” value on M1 muscarinic receptor (compounds 455-509) is “++ (activity was measured to be between 2.0 μM and 5.0 μM)”. Besides, the “M4 Activity” value at M4 muscarinic receptor (compounds 455-509) is “++ (activity was measured to be between 2.0 μM and 5.0 μM)”.
For `CC(=O)N[C@H]1CC2(CCN(C3CC4CCC(C4)C3)CC2)c2ccccc21` (some centres unmarked) [compound 337], the Emax is under 65% on M1 muscarinic receptor (compound nos. 1-454) and under 55% at M4 muscarinic receptor (compound nos. 1-454). For the same molecule, the “M1 Activity” value at M1 muscarinic receptor (setting [1]) is given as “+ (activity was measured to be greater than or equal to 3.0 μM)”. The “M4 Activity” value on M4 muscarinic receptor (setting [2]) is reported as “+ (activity was measured to be greater than or equal to 4.0 μM)”.
`Cc1ccc2c(c1)C1(CCN(C3CC4CCC(C4)C3)CC1)CN2` (centres unmarked) [compound 397]: on M1 muscarinic receptor (compound nos. 1-454), the “M1 Activity” value is “++ (activity was measured to be between 0.7 μM and 3.0 μM)”; the Emax fell in the range of 65 to 85%. Moreover, on M4 muscarinic receptor (compound nos. 1-454), the “M4 Activity” value is given as “+ (activity was measured to be greater than or equal to 4.0 μM)” and the Emax is under 55%.
For the molecule `CC(=O)N1CC2(CCN(C3CCN(C(=O)OC(C)C)CC3)CC2)c2cc(F)ccc21` [compound 269], the Emax is 65 to 85% on M1 muscarinic receptor (compound nos. 1-454) and over 70% on M4 muscarinic receptor (compound nos. 1-454). On M1 muscarinic receptor (setting [1]), the “M1 Activity” value was “+++ (activity was measured to be less than or equal to 0.7 μM)”. Also, the “M4 Activity” value on M4 muscarinic receptor (setting [2]) is on record as “+++ (activity was measured to be less than or equal to 0.1 μM)”.
Regarding `COCCOC(=O)N1C2CCC1CC(N1CCC3(CCc4ccccc43)CC1)C2` (centres unmarked) [compound 95], the Emax at M1 muscarinic receptor (compound nos. 1-454) is 65 to 85%; on M4 muscarinic receptor (compound nos. 1-454), under 55%. For the same molecule, the “M1 Activity” value on M1 muscarinic receptor (setting [1]) is reported as “+++ (activity was measured to be less than or equal to 0.7 μM)”. The “M4 Activity” value on M4 muscarinic receptor (setting [2]) is “++ (activity was measured to be between 0.1 μM and 4.0 μM)”.
For the molecule `CC(=O)N1CC2(CCN(C3CCN(C(=O)O[C@@H]4CCOC4)CC3)CC2)c2cc(F)ccc21` [compound 424], at M1 muscarinic receptor (compound nos. 1-454), the “M1 Activity” value is given as “+ (activity was measured to be greater than or equal to 3.0 μM)” and the Emax is under 65%. On M4 muscarinic receptor (compound nos. 1-454), the “M4 Activity” value was “+ (activity was measured to be greater than or equal to 4.0 μM)” and the Emax is under 55%.

Values taken from US7858635B2 (priority 2005, dated 2010).
